pIC50: −log10 of the molar value.
Legend:
Cbl-b (aa36-427) = biological target: T1, Cbl-b (aa36-427) (Homo sapiens, UniProt Q13191); assay: Co-expressed Cbl-b with BirA biochemical assay (CBLB/E2-Ub binding, HTRF); settings: 0.6 nM Cbl-b co-expressed with BirA, HTRF; read-out: co-express CBLB/E2-Ub-binding assay IC50
T1 construct: Cbl-b (aa36-427, in-house); made in house
Text: (§1) The assay in the absence of a Cbl-b/Cbl inhibitor, where phosphorylation of Cbl-b/Cbl by the Src kinase allows UbcH5B-Ub to bind to Cbl-b/Cbl and brings the Bodipy-Fluorescein tagged ubiquitin in proximity to the streptavidin-terbium bound to the N-terminal biotinylated Avi-tagged Cbl-b/Cbl. […] The lack of a FRET signal indicates Cbl-b/Cbl is inhibited by the Cbl-b/Cbl inhibitor.

Cbl (aa49-434) = biological target: T2, Cbl (aa49-434) (Homo sapiens, UniProt P22681); assay: Co-expressed Cbl with BirA biochemical assay (CBL/E2-Ub binding, HTRF); settings: 0.6 nM Cbl co-expressed with BirA, read-out: co-express CBL/E2-Ub-binding assay IC50
T2 construct: Cbl (aa49-434, in-house); made in house
T2 sequence (P22681 49-434): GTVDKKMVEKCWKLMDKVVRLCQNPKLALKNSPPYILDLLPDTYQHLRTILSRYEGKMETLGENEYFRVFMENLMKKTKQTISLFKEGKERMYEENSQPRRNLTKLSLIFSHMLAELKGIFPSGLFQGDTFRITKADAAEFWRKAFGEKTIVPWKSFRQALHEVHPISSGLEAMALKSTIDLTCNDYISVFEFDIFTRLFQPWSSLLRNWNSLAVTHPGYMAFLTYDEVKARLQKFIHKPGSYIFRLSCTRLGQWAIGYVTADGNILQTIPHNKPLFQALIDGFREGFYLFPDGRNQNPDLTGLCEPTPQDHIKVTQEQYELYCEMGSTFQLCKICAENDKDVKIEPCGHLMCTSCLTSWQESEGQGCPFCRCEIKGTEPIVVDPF
Text: as §1

T1 sequence (Q13191 36-427): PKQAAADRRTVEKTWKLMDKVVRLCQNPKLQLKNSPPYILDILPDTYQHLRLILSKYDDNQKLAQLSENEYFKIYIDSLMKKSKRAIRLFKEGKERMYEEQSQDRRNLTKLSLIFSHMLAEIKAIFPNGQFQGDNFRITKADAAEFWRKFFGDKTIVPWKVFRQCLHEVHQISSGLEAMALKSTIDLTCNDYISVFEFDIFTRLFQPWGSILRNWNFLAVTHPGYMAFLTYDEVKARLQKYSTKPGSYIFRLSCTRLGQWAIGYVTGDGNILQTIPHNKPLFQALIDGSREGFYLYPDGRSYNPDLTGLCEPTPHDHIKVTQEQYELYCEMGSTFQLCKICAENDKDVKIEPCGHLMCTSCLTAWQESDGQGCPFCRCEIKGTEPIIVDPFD

| Compound | pIC50 (Cbl-b (aa36-427)) | pIC50 (Cbl (aa49-434)) |
| --- | --- | --- |
| Cn1cnnc1[C@]1(c2cccc(NC(=O)c3cc(CNCC4CCC(F)(F)CC4)c4c(n3)C(C)(C)CO4)c2)C[C@H](CC#N)C1 [Compound C20, N-(3-((1s, 3s)-3-(cyanomethyl)-1-(4-methyl-4H-1,2,4-triazol-3-yl)cyclobutyl)phenyl)-7-((((4,4-difluorocyclohexyl)methyl)amino)methyl)-3,3-dimethyl-2,3-dihydrofuro[3,2-b]pyridine-5-carboxamide] | 8.16 | 7.10 |
| Cn1cnnc1[C@]1(c2cncc(NC(=O)c3cc(CNC4(C)CCC4)cn4c(F)cnc34)c2)C[C@H](C)C1 [Compound A76, 3-fluoro-N-(5-((1s, 3s)-3-methyl-1-(4-methyl-4H-1,2,4-triazol-3-yl)cyclobutyl)pyridin-3-yl)-6-(((1-methylcyclobutyl)amino)methyl)imidazo[1,2-a]pyridine-8-carboxamide] | 8.59 | 8.08 |
| Cn1cnnc1[C@]1(c2cncc(NC(=O)c3cc(CNC4(C)CCC4)cn4ccnc34)c2)C[C@H](C)C1 [Compound A81, N-(5-((1s, 3s)-3-methyl-1-(4-methyl-4H-1,2,4-triazol-3-yl)cyclobutyl)pyridin-3-yl)-6-(((1-methylcyclobutyl)amino)methyl)imidazo[1,2-a]pyridine-8-carboxamide] | 8.74 | 8.09 |
| C[C@H](NCc1cc(C(=O)Nc2cccc([C@]3(c4nncn4C)C[C@@H](C)C3)c2)nc2c1CCC2(F)F)C1CCC1 [Compound C59, 4-((((S)-1-cyclobutylethyl)amino)methyl)-7,7-difluoro-N-(3-((1s,3R)-3-methyl-1-(4-methyl-4H-1,2,4-triazol-3-yl)cyclobutyl)phenyl)-6,7-dihydro-5H-cyclopenta[b]pyridine-2-carboxamide] | 8.60 | 8.14 |
| C[C@H]1CCCN(Cc2cc(C(=O)Nc3cccc([C@]4(c5nncn5C)C[C@@H](CC#N)C4)c3)n3ncnc3c2)C1 [Compound A14, N-(3-((1s,3R)-3-(cyanomethyl)-1-(4-methyl-4H-1,2,4-triazol-3-yl)cyclobutyl)phenyl)-7-(((S)-3-methylpiperidin-1-yl)methyl)-[1,2,4]triazolo[1,5-a]pyridine-5-carboxamide] | 7.34 | 6.73 |
| Cn1cnnc1[C@]1(c2cccc(NC(=O)c3cc(CNCC4CCC(F)(F)C4)c4c(n3)C(C)(C)CC4)c2)C[C@H](CC#N)C1 (stereo partly shown) [Compound C16, N-(3-((1s, 3s)-3-(cyanomethyl)-1-(4-methyl-4H-1,2,4-triazol-3-yl)cyclobutyl)phenyl)-4-((((3,3-difluorocyclopentyl)methyl)amino)methyl)-7,7-dimethyl-6,7-dihydro-5H-cyclopenta[b]pyridine-2-carboxamide] | 8.77 | 8.28 |
| C[C@H]1CCCN(Cc2cc(C(=O)Nc3cccc([C@]4(c5nncn5C)C[C@@H](CC#N)C4)c3)c3ncc(F)n3c2)C1 [Compound A12, 3-fluoro-6-{[(3S)-3-methylpiperidin-1-yl]methyl}-N-{3-[(1s, 3s)-3-(cyanomethyl)-1-(4-methyl-1,2,4-triazol-3-yl)cyclobutyl]phenyl}imidazo[1,2-a]pyridine-8-carboxamide] | 8.41 | 7.49 |
| C[C@H]1CCCN(Cc2cc(C(=O)Nc3cccc([C@]4(c5nncn5C)C[C@@H](CC#N)C4)c3)n3ncc(Cl)c3c2)C1 [Compound A21, 3-chloro-N-(3-((1s,3R)-3-(cyanomethyl)-1-(4-methyl-4H-1,2,4-triazol-3-yl)cyclobutyl)phenyl)-5-(((S)-3-methylpiperidin-1-yl)methyl)pyrazolo[1,5-a]pyridine-7-carboxamide] | 8.54 | 7.51 |

Further molecules by rising pIC50 (Cbl-b (aa36-427)), results first:

| pIC50 (Cbl-b (aa36-427)) | pIC50 (Cbl (aa49-434)) | Compound |
| --- | --- | --- |
| 8.77 | 7.79 | C[C@H]1CCCN(Cc2cc(C(=O)Nc3cccc([C@]4(c5nncn5C)C[C@@H](CC#N)C4)c3)nc3c(Cl)c[nH]c23)C1 [Compound B16, 3-chloro-N-(3-((1s,3R)-3-(cyanomethyl)-1-(4-methyl-4H-1,2,4-triazol-3-yl)cyclobutyl)phenyl)-7-(((S)-3-methylpiperidin-1-yl)methyl)-1H-pyrrolo[3,2-b]pyridine-5-carboxamide] |
| 8.80 | 8.26 | Cc1c[nH]c2c(CN3CC[C@H](F)[C@H](C)C3)cc(C(=O)Nc3cccc([C@]4(c5nncn5C)C[C@@H](C)C4)c3)nc12 [Compound B34, 7-(((3R,4S)-4-fluoro-3-methylpiperidin-1-yl)methyl)-3-methyl-N-(3-((1s,3S)-3-methyl-1-(4-methyl-4H-1,2,4-triazol-3-yl)cyclobutyl)phenyl)-1H-pyrrolo[3,2-b]pyridine-5-carboxamide] |
| 8.82 | 7.60 | Cn1cnnc1[C@]1(c2cccc(NC(=O)c3cc(CNC4(C)CCC4)c4c(n3)C(F)(F)CC4)c2)C[C@H](CC#N)C1 [Compound C42, N-(3-((1s, 3s)-3-(cyanomethyl)-1-(4-methyl-4H-1,2,4-triazol-3-yl)cyclobutyl)phenyl)-7,7-difluoro-4-(((1-methylcyclobutyl)amino)methyl)-6,7-dihydro-5H-cyclopenta[b]pyridine-2-carboxamide] |
| 8.82 | 8.03 | Cn1cnnc1[C@]1(c2cncc(NC(=O)c3cc(CNC4(C)CCC4)c4[nH]ccc4n3)c2)C[C@H](C)C1 [Compound B50, N-(5-((1s, 3s)-3-methyl-1-(4-methyl-4H-1,2,4-triazol-3-yl)cyclobutyl)pyridin-3-yl)-7-(((1-methylcyclobutyl)amino)methyl)-1H-pyrrolo[3,2-b]pyridine-5-carboxamide] |
| 8.82 | 8.96 | C[C@H](NCc1cc(C(=O)Nc2cccc([C@]3(Cc4nncn4C)C[C@@H](C#N)C3)c2)c2nccn2c1)C1CCCC1 [Compound A33, N-(3-((1r,3S)-3-cyano-1-((4-methyl-4H-1,2,4-triazol-3-yl)methyl)cyclobutyl)phenyl)-6-((((S)-1-cyclopentylethyl)amino)methyl)imidazo[1,2-a]pyridine-8-carboxamide] |
| 8.85 | 7.94 | Cn1cnnc1[C@]1(c2cccc(NC(=O)c3cc(CN[C@H]4CCC(F)(F)C4)cn4ccnc34)c2)C[C@H](CC#N)C1 [Compound A23, N-(3-((1s,3R)-3-(cyanomethyl)-1-(4-methyl-4H-1,2,4-triazol-3-yl)cyclobutyl)phenyl)-6-((((S)-3,3-difluorocyclopentyl)amino)methyl)imidazo[1,2-a]pyridine-8-carboxamide] |
| 8.85 | 8.06 | Cc1c[nH]c2c(CNC3(C)CC3)cc(C(=O)Nc3cccc([C@]4(c5nncn5C)C[C@@H](CC#N)C4)c3)nc12 [Compound B30, N-(3-((1s, 3s)-3-(cyanomethyl)-1-(4-methyl-4H-1,2,4-triazol-3-yl)cyclobutyl)phenyl)-3-methyl-7-(((1-methylcyclopropyl)amino)methyl)-1H-pyrrolo[3,2-b]pyridine-5-carboxamide] |
| 9.05 | 8.23 | Cn1cnnc1[C@]1(c2cccc(NC(=O)c3cc(CNC4(C)CC4)cn4ccnc34)c2)C[C@H](C)C1 [Compound A16, N-(3-((1s, 3s)-3-methyl-1-(4-methyl-4H-1,2,4-triazol-3-yl)cyclobutyl)phenyl)-6-(((1-methylcyclopropyl)amino)methyl)imidazo[1,2-a]pyridine-8-carboxamide] |
| 9.05 | 8.47 | Cn1cnnc1[C@]1(c2cccc(NC(=O)c3cc(CNCC4CCC4)c4c(n3)C(C)(C)CC4)c2)C[C@H](C)C1 [Compound C57, 4-(((cyclobutylmethyl)amino)methyl)-7,7-dimethyl-N-(3-((1s, 3s)-3-methyl-1-(4-methyl-4H-1,2,4-triazol-3-yl)cyclobutyl)phenyl)-6,7-dihydro-5H-cyclopenta[b]pyridine-2-carboxamide] |
| 9.10 | 8.77 | C[C@H](NCc1cc(C(=O)Nc2cccc([C@]3(c4nncn4C)C[C@@H](C)C3)c2)c2ncc(Cl)n2c1)C1CCC1 [Compound A69, 3-chloro-6-((((S)-1-cyclobutylethyl)amino)methyl)-N-(3-((1s,3R)-3-methyl-1-(4-methyl-4H-1,2,4-triazol-3-yl)cyclobutyl)phenyl)imidazo[1,2-a]pyridine-8-carboxamide] |
| 9.10 | 8.47 | Cn1cnnc1[C@]1(c2cccc(NC(=O)c3cc(CNCC4CCC4)cn4c(F)cnc34)c2)C[C@H](C)C1 [Compound A52, 6-(((cyclobutylmethyl)amino)methyl)-3-fluoro-N-(3-((1s, 3s)-3-methyl-1-(4-methyl-4H-1,2,4-triazol-3-yl)cyclobutyl)phenyl)imidazo[1,2-a]pyridine-8-carboxamide] |
| 9.15 | 8.68 | CC(C)CNCc1cc(C(=O)Nc2cccc([C@]3(c4nncn4C)C[C@@H](C)C3)c2)nc2cc[nH]c12 [Compound B1, 7-((isobutylamino)methyl)-N-(3-((1s, 3s)-3-methyl-1-(4-methyl-4H-1,2,4-triazol-3-yl)cyclobutyl)phenyl)-1H-pyrrolo[3,2-b]pyridine-5-carboxamide] |
